Laboratory results reported in patent US20100009970A1, “COMPOSITIONS AND METHODS FOR TREATMENT OF VIRAL DISEASES” (Combinatorx (Singapore) Pte. Ltd., priority 2008, published 2010).
Where a name gives a salt, the structure may show the parent alone. Read-outs that look alike come from different tables or passages of the source.

What was measured:
[1] = test system: Huh7 cells expressing a subgenomic RNA replicon of Con1 (genotype 1b) sequence origin; experiment: microbe, parasite or virus in culture; settings: Hepatitis C virus
in vitro = settings: human
[2] = test system: Huh7 cells expressing a subgenomic RNA replicon of Con1 (genotype 1b) sequence origin
[3] = GETYPE1B, Huh-7, 72 h, read-out: Max Effect @CC30 (inhibition)
[4] = Huh-7, 48 h, read-out: Max Effect
[5] = Huh-7, read-out: IC50 (uM) [SG]
[6] = Huh-7, read-out: Max Effect@CC30 (inhibition)

Compound: CN[C@H]1CC[C@@H](c2ccc(Cl)c(Cl)c2)c2ccc(S(=O)(=O)NC)cc21 [Sertraline Sulfonamide, (5S,8S)-5-(3,4-dichlorophenyl)-N-methyl-8-(methylamino)-5,6,7,8-tetrahydronaphthalene-2-sulfonamide]
- Emax [1, 3]: 40.5 ± 5%
- IC50 ([1]; Huh-7, 48 h): 7.26 µM
- Emax [1, 4]: 94%
- IC50 ([1]; Huh-7, 72 h): 6.87 ± 0.2 µM
- IC50 [1, 5]: 6.87 ± 0.2 µM
- Emax [1, 6]: 40.5 ± 5%
- CC50 (in vitro; CC50): 11.6 µM
- CC50 (in vitro; CC50 (uM)): 13.04 ± 0.1 µM
- CC50 (in vitro; CC50 (uM) [SG]): 13.04 ± 0.1 µM
- Synergy Score [2]: 0.43
- TI (CC50/IC50) [2]: 1.605

Compound: N[C@@H]1CC[C@H](c2ccc(Cl)c(Cl)c2)c2ccccc21 [(1R,4R)-Desmethyl Sertraline, (1R,4R)-4-(3,4-dichlorophenyl)-1,2,3,4-tetrahydronaphthalen-1-amine]
- Emax [1, 3]: 0%
- IC50 ([1]; Huh-7, 48 h): 7.32 µM
- Emax [1, 4]: 81%
- IC50 ([1]; Huh-7, 72 h): 8.7 µM
- IC50 [1, 5]: 8.7 µM
- Emax [1, 6]: 0%
- CC50 (in vitro; CC50): > 8.83 µM
- CC50 (in vitro; CC50 (uM)): 8.1 µM
- CC50 (in vitro; CC50 (uM) [SG]): 8.1 µM
- Synergy Score [2]: 0.57
- TI (CC50/IC50) [2]: >1.206

Compound: NC1CCC(c2ccc(Cl)c(Cl)c2)c2ccccc21 (racemic)
- IC50 ([1]; Huh-7, 48 h): 6.26 µM
- Emax [1, 4]: 99%
- CC50 (in vitro; CC50): 7.84 µM
- Synergy Score [2]: 1.51
- TI (CC50/IC50) [2]: 1.252

Compound: CN(C)[C@H]1CC[C@@H](c2ccc(Cl)c(Cl)c2)c2ccc(NS(C)(=O)=O)cc21 [Dimethyl Sertraline Reverse Sulfonamide, N-((5S,8S)-5-(3,4-dichlorophenyl)-8-(dimethylamino)-5,6,7,8-tetrahydronaphthalen-2-yl)methanesulfonamide]
- Emax [1, 3]: 70%
- Emax [1, 4]: 44%
- IC50 ([1]; Huh-7, 72 h): 3.45 µM
- IC50 [1, 5]: 3.45 µM
- Emax [1, 6]: 70%
- CC50 (in vitro; CC50): > 13.4 µM
- CC50 (in vitro; CC50 (uM)): 16.5 µM
- CC50 (in vitro; CC50 (uM) [SG]): 16.5 µM
- Synergy Score [2]: 1.22

Compound: COC1CC[C@@H](c2ccc(Cl)c(Cl)c2)c2ccccc21 (single isomer, unassigned) [Methoxy 4S-Sertraline-P1]
- IC90 ([1]; Huh-7): 46.1 µM
- IC50 [1, 5]: 22.7 µM
- CC50 (in vitro; CC50 (uM) [SG]): > 50 µM
- Max Effect@CC30 (inhibition) [2]: 93.98%

Compound: CN[C@H]1CC[C@@H](c2ccc(Cl)c(Cl)c2)c2ccccc21 [Sertraline (e.g., hydrochloride), Sertraline, reference compound]
- Emax [1, 4]: 99%
- CC50 at 48 h (in vitro; CC50): 8.83 µM
- Synergy Score [2]: 2.76

Compound: CN[C@H]1CC[C@@H](c2ccc(Cl)c(Cl)c2)c2ccc(C(=O)OC)cc21 [Sertraline A-ring Methyl Ester, (5S,8S)-methyl 5-(3,4-dichlorophenyl)-8-(methylamino)-5,6,7,8-tetrahydronaphthalene-2-carboxylate]
- Emax [1, 3]: 78%
- IC50 ([1]; Huh-7, 48 h): 6.42 µM
- Emax [1, 4]: 99%
- IC50 ([1]; Huh-7, 72 h): 9.13 µM
- IC50 [1, 5]: 9.13 µM
- Emax [1, 6]: 78%
- CC50 (in vitro; CC50): 8.01 µM
- CC50 (in vitro; CC50 (uM)): 13.7 µM
- CC50 (in vitro; CC50 (uM) [SG]): 13.7 µM
- Synergy Score [2]: 0.51
- TI (CC50/IC50) [2]: 1.248

Compound: CN[C@H]1CC[C@@H](c2ccc(Cl)c(Cl)c2)c2ccc(CNS(C)(=O)=O)cc21 [N-(((5S,8S)-5-(3,4-dichlorophenyl)-8-(methylamino)-5,6,7,8-tetrahydronaphthalen-2-yl)methyl)methanesulfonamide]
- Emax [1, 3]: 59.7 ± 3.5%
- IC50 ([1]; Huh-7, 48 h): 5.97 µM
- Emax [1, 4]: 100%
- IC50 ([1]; Huh-7, 72 h): 3.28 ± 1.5 µM
- IC50 [1, 5]: 3.28 ± 1.5 µM
- Emax [1, 6]: 59.7 ± 3.5%
- CC50 (in vitro; CC50): 10.5 µM
- CC50 (in vitro; CC50 (uM)): 11.2 ± 0.3 µM
- CC50 (in vitro; CC50 (uM) [SG]): 11.2 ± 0.3 µM
- Synergy Score [2]: 0.55
- TI (CC50/IC50) [2]: 1.761

Compound: CN[C@H]1CC[C@@H](c2ccc(Cl)c(Cl)c2)c2ccc(S(=O)(=O)N(C)C)cc21 [Sertraline N,N-dimethylsulfonamide, (5S,8S)-5-(3,4-dichlorophenyl)-N,N-dimethyl-8-(methylamino)-5,6,7,8-tetrahydronaphthalene-2-sulfonamide]
- Emax [1, 3]: 38%
- IC50 ([1]; Huh-7, 48 h): 7.3 µM
- Emax [1, 4]: 91%
- IC50 ([1]; Huh-7, 72 h): 6.69 µM
- IC50 [1, 5]: 6.69 µM
- Emax [1, 6]: 38%
- CC50 (in vitro; CC50): 7.85 µM
- CC50 (in vitro; CC50 (uM)): 8.87 µM
- CC50 (in vitro; CC50 (uM) [SG]): 8.87 µM
- Synergy Score [2]: 0.53
- TI (CC50/IC50) [2]: 1.076

Compound: C[C@]12CC[C@H]3[C@@H](CCC4=CC(=O)CC[C@@]43C)[C@@H]1CC[C@@H]2C(=O)CO [Desoxycorticosterone (e.g., acetate), deoxycorticosterone, reference compound]
- IC50 [2]: 14.7 µM

Compound: CN[C@H]1CC[C@@H](c2ccc(Cl)c(Cl)c2)c2ccc(S(N)(=O)=O)cc21 [Sertraline Sulfonamide NH2, (5S,8S)-5-(3,4-dichlorophenyl)-8-(methylamino)-5,6,7,8-tetrahydronaphthalene-2-sulfonamide]
- Emax [1, 3]: 63.5 ± 6.4%
- IC50 ([1]; Huh-7, 48 h): 6.02 µM
- Emax [1, 4]: 91%
- IC50 ([1]; Huh-7, 72 h): 3.65 ± 2.3 µM
- IC50 [1, 5]: 3.65 ± 2.3 µM
- Emax [1, 6]: 63.5 ± 6.4%
- CC50 (in vitro; CC50): > 13.4 µM
- CC50 (in vitro; CC50 (uM)): 9.99 ± 4.4 µM
- CC50 (in vitro; CC50 (uM) [SG]): 9.99 ± 4.4 µM
- Synergy Score [2]: 0.49
- TI (CC50/IC50) [2]: >2.226

Compound: CNC1CCC(c2ccc(Oc3ccccc3)cc2)c2ccccc21 (centres unmarked) [Sertraline B-ring para-Phenoxy, N-methyl-4-(4-phenoxyphenyl)-1,2,3,4-tetrahydronaphthalen-1-amine]
- Emax [1, 3]: 65%
- IC50 ([1]; Huh-7, 48 h): 3.75 µM
- Emax [1, 4]: 99%
- IC50 ([1]; Huh-7, 72 h): 5.15 µM
- IC50 [1, 5]: 4.02 ± 1.6 µM
- Emax [1, 6]: 81 ± 22.6%
- CC50 (in vitro; CC50): 7.46 µM
- CC50 (in vitro; CC50 (uM)): 6.8 µM
- CC50 (in vitro; CC50 (uM) [SG]): 7.85 ± 1.48 µM
- Synergy Score [2]: 0.38
- TI (CC50/IC50) [2]: 1.987

Compound: Nc1ccccc1NC(=O)CCCCCCC(=O)Nc1ccccc1 [CAY10433, reference compound]
- IC50 [2]: 7.88 µM

Compound: CN[C@H]1CC[C@@H](c2ccc(Cl)c(Cl)c2)c2ccc(C#N)cc21 [Sertraline Nitrile, (5S,8S)-5-(3,4-dichlorophenyl)-8-(methylamino)-5,6,7,8-tetrahydronaphthalene-2-carbonitrile]
- Emax [1, 3]: 87%
- IC50 ([1]; Huh-7, 48 h): 7.46 µM
- Emax [1, 4]: 89%
- IC50 ([1]; Huh-7, 72 h): 4.81 µM
- IC50 [1, 5]: 4.81 µM
- Emax [1, 6]: 87%
- CC50 (in vitro; CC50): > 13.4 µM
- CC50 (in vitro; CC50 (uM)): 14.8 µM
- CC50 (in vitro; CC50 (uM) [SG]): 14.8 µM
- Synergy Score [2]: 0.52
- TI (CC50/IC50) [2]: >1.796

Compound: O=c1cc(N2CCOCC2)oc2c1ccc1ccccc12 [DNA-PK inhibitor II, reference compound]
- IC50 [2]: 6.52 µM

Compound: O=[N+]([O-])c1ccc2nc(N3CCNCC3)ccc2c1 [6-Nitroquipazine, reference compound]
- IC50 [2]: 16.4 µM

Compound: CCN(CC)c1ccc(C(=C2C=CC(=[N+](CC)CC)C=C2)c2cc(S(=O)(=O)O)ccc2S(=O)(=O)[O-])cc1 [Isosulfan Blue, reference compound]
- IC50 [2]: 24.9 µM

Compound: CN(C)[C@H]1CC[C@@H](c2ccc(Cl)c(Cl)c2)c2ccccc21 [N,N-Dimethyl Sertraline, (1S,4S)-4-(3,4-dichlorophenyl)-N,N-dimethyl-1,2,3,4-tetrahydronaphthalen-1-amine]
- Emax [1, 3]: 99%
- IC90 ([1]; Huh-7): 18.1 ± 2.77 µM
- IC50 ([1]; Huh-7, 48 h): 7.77 µM
- Emax [1, 4]: 70%
- IC50 ([1]; Huh-7, 72 h): 5.22 ± 2.2 µM
- IC90 ([1]; Huh-7, 72 h): 17.1 ± 2.93 µM
- IC50 [1, 5]: 6.07 ± 2.2 µM
- Emax [1, 6]: 99%
- CC50 (in vitro; CC50): > 13.4 µM
- CC50 (in vitro; CC50 (uM)): 72.2 µM
- CC50 (in vitro; CC50 (uM) [SG]): 64.7 ± 10.6 µM
- Synergy Score [2]: 0.89
- TI (CC50/IC50) [2]: >1.727

Compound: N#C/C(=C/c1ccc(O)c(O)c1)C(=O)NCc1ccccc1 [AG-490, tyrphostin AG-490, reference compound]
- IC50 [2]: 5.03 µM

Compound: CCC(Cc1c(I)cc(I)c(O)c1I)C(=O)O (centres unmarked) [Iophenoxic acid, reference compound]
- IC50 [2]: 10.6 µM

Compound: COc1ccc(C[C@H]2NC[C@H](O)[C@H]2OC(C)=O)cc1 [Anisomycin, reference compound]
- IC50 [2]: 0.608 µM

Compound: COc1ccc(CCN(C)CCC[C@](C#N)(c2ccc(OC)c(OC)c2)C(C)C)cc1OC [R(+)-Verapamil (e.g., hydrochloride), R(+)-Verapamil, reference compound]
- IC50 [2]: 15.7 µM

Compound: O=C1Nc2ccc3ncsc3c2/C1=C/c1cnc[nH]1 [PKR inhibitor, reference compound]
- IC50 [2]: 1.75 µM

Compound: CN[C@H]1CC[C@@H](c2ccc(Cl)c(Cl)c2)c2ccc(CO)cc21 [Sertraline A-Ring Ethanol, ((5S,8S)-5-(3,4-dichlorophenyl)-8-(methylamino)-5,6,7,8-tetrahydronaphthalen-2-yl)methanol]
- Emax [1, 3]: 92 ± 5.6%
- IC90 ([1]; Huh-7): 11.3 ± 2.91 µM
- IC50 ([1]; Huh-7, 48 h): 4.48 µM
- Emax [1, 4]: 97%
- IC50 ([1]; Huh-7, 72 h): 2.85 ± 1.21 µM
- IC90 ([1]; Huh-7, 72 h): 11.3 ± 2.91 µM
- IC50 [1, 5]: 2.85 ± 1.21 µM
- Emax [1, 6]: 92 ± 5.6%
- CC50 (in vitro; CC50): 11.1 µM
- CC50 (in vitro; CC50 (uM)): 14.2 ± 0.3 µM
- CC50 (in vitro; CC50 (uM) [SG]): 14.2 ± 0.3 µM
- Synergy Score [2]: 1.46
- TI (CC50/IC50) [2]: 2.472

Compound: CN[C@H]1CC[C@@H](c2ccc(Cl)c(Cl)c2)c2ccc(NS(=O)(=O)C3CC3)cc21 [N-((5S,8S)-5-(3,4-dichlorophenyl)-8-(methylamino)-5,6,7,8-tetrahydronaphthalen-2-yl)cyclopropanesulfonamide]
- IC50 ([1]; Huh-7): 5.63 µM
- IC90 ([1]; Huh-7): 10.7 µM
- IC50 [1, 5]: 5.62 µM
- Emax [1, 6]: 58.8%
- CC50 (in vitro; CC50 (uM)): 7.45 µM
- CC50 (in vitro; CC50 (uM) [SG]): 7.45 µM
- Max Effect@CC30 (inhibition) [2]: 56.82%

Compound: CCCCC(CC)COC(=O)c1ccc(N(C)C)cc1 (centres unmarked) [Padimate O]
- IC50 [2]: 5.44 µM

Compound: C/C1=C2/[N-]C([C@H](CC(N)=O)[C@@]2(C)CCC(=O)NC[C@@H](C)OP(=O)([O-])O[C@H]2[C@@H](O)[C@@H](n3cnc4cc(C)c(C)cc43)O[C@@H]2CO)[C@]2(C)N=C(/C(C)=C3N=C(/C=C4N=C1[C@@H](CCC(N)=O)C\4(C)C)[C@@H](CCC(N)=O)[C@]\3(C)CC(N)=O)[C@@H](CCC(N)=O)[C@]2(C)CC(N)=O.[CH2-][C@H]1O[C@@H](n2cnc3c(N)ncnc32)[C@@H](O)[C@@H]1O.[Co+3] [Cobamamide, cobamamide, reference compound]
- IC50 [2]: 0.41 µM

Compound: CC1=C(/C=C/C(C)O)C(C)(C)CCC1 (stereo not drawn) [Beta-Ionol]
- IC50 [2]: 21 µM
